Assay results: PMC3310203 (Journal of Medicinal Chemistry, 2012)
Entries after “also recorded” stand apart in the source; their conditions may differ. Where two headings read alike, the source gives them in different places.

Experiments:
[1] = test system: HIV; assay: In vitro anti-HIV activity in MT4 cells; format: cell-based; conditions: for times higher potency than 13a in the cell-based antiviral activity assay: fold versus 13a
[2] = biological target: HIV-1 protease (Human immunodeficiency virus type 1 group M subtype B, UniProt P04585); assay: HIV protease inhibition, fluorometric assay; format: biochemical; conditions: for Ki: fluorometric assay, pH 5.0, 30 °C, 5 µM substrate
[3] = Metabolic stability; format: in vitro ADME, human
[4] = test system: Caco-2 cell; assay: Caco-2 cell penetration assay; format: in vitro ADME
[5] = ATZ for comparison, cited from earlier work
[6] = p-bromide inhibitors 13a and 19a compared

Compound	permeability in the Caco-2 study (in words) [4]	activity in the enzyme assay (in words) [2]	activity in the cell-based antiviral assay (in words) [1]	other results
COC(=O)N[C@H](C(=O)NN(CC[C@@]1(Cc2ccccc2)C(=O)N([C@H]2c3ccccc3C[C@H]2O)C[C@H]1O)Cc1ccc(-c2ccncc2)cc1)C(C)(C)C [Compound 13i]	–	–	–	times higher potency than 13a in the cell-based antiviral activity assay [1]: 10
COC(=O)N[C@H](C(=O)NN(CC[C@@]1(Cc2ccccc2)C(=O)N([C@H]2c3ccccc3C[C@H]2O)C[C@H]1O)Cc1ccc(Br)cc1)C(C)(C)C [Compound 13a]	–	–	–	Ki [2]: < 10 nM; metabolic clearance (in words) [3]: High metabolic clearance; EC50 ([1]; Human immunodeficiency virus 1, MT4, antiviral activity, MT4 cells): < 1000 nM
COC(=O)N[C@H](C(=O)NN(CC[C@@]1(Cc2ccccc2)C(=O)N([C@H]2c3ccccc3C[C@H]2O)C[C@H]1O)Cc1ccc(-c2cccnc2)cc1)C(C)(C)C [Compound 13g]	moderate permeability	–	–	times higher potency than 13a in the cell-based antiviral activity assay [1]: 10
COC(=O)N[C@H](C(=O)N[C@@H](Cc1ccccc1)[C@@H](O)CN(Cc1ccc(-c2ccccn2)cc1)NC(=O)[C@@H](NC(=O)OC)C(C)(C)C)C(C)(C)C [ATZ, Atazanavir]	–	–	–	Clint ([5]; ref 23): 90 μL min^–1 mg^–1; Clint ([5]; ref 64): 140 μL min^–1 mg^–1
COC(=O)N[C@H](C(=O)NN(CC[C@]1(Cc2ccccc2)C(=O)N([C@H]2c3ccccc3C[C@H]2O)C[C@@H]1O)Cc1ccc(Br)cc1)C(C)(C)C [Compound 13c]	–	did not show any activity; also recorded: almost no inhibiting effect	did not show any activity; also recorded: almost no inhibiting effect	–
COC(=O)N[C@H](C(=O)NN(CC[C@@]1(Cc2ccccc2)C(=O)N([C@H]2c3ccccc3C[C@H]2O[Si](C)(C)C(C)(C)C)C[C@@H]1O[Si](C)(C)C(C)(C)C)Cc1ccc(Br)cc1)C(C)(C)C [Compound 12d]	–	did not show any activity; also recorded: did not show any inhibitory potency	did not show any activity	–
COC(=O)N[C@H](C(=O)NN(CCC[C@@]1(Cc2ccccc2)C(=O)N([C@H]2c3ccccc3C[C@H]2O)C[C@H]1O)Cc1ccc(Br)cc1)C(C)(C)C [Compound 19a]	high permeability	–	–	fold loss of potency versus 13a (Ki) [2, 6]: 5; fold loss of potency versus 13a (EC50) [1, 6]: 5
COC(=O)N[C@H](C(=O)NN(CC[C@@]1(Cc2ccccc2)C(=O)N([C@H]2c3ccccc3C[C@H]2O)C[C@@H]1O)Cc1ccc(-c2cccnc2)cc1)C(C)(C)C [Compound 13h]	moderate permeability	–	–	–
COC(=O)N[C@H](C(=O)NN(CC[C@]1(Cc2ccccc2)C(=O)N([C@H]2c3ccccc3C[C@H]2O)C[C@H]1O)Cc1ccc(Br)cc1)C(C)(C)C [Compound 13b]	–	did not show any activity; also recorded: almost no inhibiting effect	did not show any activity; also recorded: almost no inhibiting effect	–
COC(=O)N[C@H](C(=O)NN(CC[C@@]1(Cc2ccccc2)C(=O)N([C@H]2c3ccccc3C[C@H]2O[Si](C)(C)C(C)(C)C)C[C@H]1O[Si](C)(C)C(C)(C)C)Cc1ccc(Br)cc1)C(C)(C)C [Compound 12a]	–	did not show any activity; also recorded: did not show any inhibitory potency	did not show any activity	–
COC(=O)N[C@H](C(=O)NN(CC[C@@]1(Cc2ccccc2)C(=O)N([C@H]2c3ccccc3C[C@H]2O)C[C@@H]1O)Cc1ccc(Br)cc1)C(C)(C)C [Compound 13d]	good results	–	–	Ki [2]: < 10 nM; metabolic clearance (in words) [3]: High metabolic clearance
